# Laboratory results from patent publication US20230265069A1, “Small Molecule Inhibitors That Block the Budding of Enveloped Viruses” (priority 2020, published 2023).
# “Also recorded” adds a separate entry of the source. Read-outs that look alike come from different tables or passages of the source.
# Tests used:
# [1] = test system: Vero cells; assay: Vero cell viability, 96 AQueous One Solution cell proliferation assay; type: cell-based; details: for Cell toxicity at concentrations that block virus release: 24 h, result in words
# From the text: (§1) Drug potency and cell toxicity. […] Cell toxicity experiments were repeated twice.
# [2] = test system: Vero cells; assay: Vero cell toxicity, WST-1 reagent; type: cell-based
# From the text: as §1
# [3] = test system: 293T cells; assay: 293T cell viability, 96 Aqueous One reagent; type: cell-based
# From the text: as §1
# [4] = test system: HIV-1; details: 293T cells, media, 24 h
# Method: Effect of Ilaprazole on release of HIV-1 in vitro. […] To this end, cells were transfected with pR9-HIV-1Ba-L plasmid and release of virus into the media fraction was detected by monitoring the capsid (CA) protein (p24) via enzyme linked immunosorbent assay analysis. The drug was tested at concentrations between 0 and 240 μM and the effect of the drug on release of virus assessed (Table 4, column 2).
# HIV-1 transfection of 293 T cells. 293T cells (American Type Culture Collection) were grown in a 24-well Clear Flat Bottom TC-treated Multiwell Cell Culture Plate using Dulbecco's modified Eagle's medium (Cellgro) containing fetal bovine serum (10%), 100 U/ml penicillin, 100 μg/ml streptomycin, and 292 μg/ml 1-glutamine (Cellgro). Cells were grown to 60-70% confluency at 37° C. and 5% CO2 408 prior to addition of drug treatment. Culture media was aspirated and replaced with media containing drug compound 7 hours prior to transfection of the plasmid encoding the HIV-1 genome. Transfection was done using reagent Polyethyleneimine (PEI, Polysciences). […] After 24 h and 48 h, tissue culture media was collected and passed through a 0.45-micron filter. Virus released from cells was quantified by media-associated p24 determined using fluorescently tagged CA targeting antibody (PerkinElmer) and equivalent amounts of p24 as standards.
# [5] = test system: HSV-1; assay: HSV-1 release from infected Vero cells, plaque assay
# [6] = test system: HSV-2; assay: HSV-2 release from infected Vero cells, plaque assay; details: for Titer of HSV-2 Media, 24 h / Titer of HSV-2 in media + cell lysate, 24 h / Titer of HSV-2 in media, 48 h / Titer of HSV-2 Media 48 h / Total Titer HSV-2 Media + Cell Lysate, 24 h: Vero cells; for EC50: read-out: EC50 (μM) Inhibition of HSV-2 Budding at 24 h, HSV-2 infected Vero cells, virus released into media, plaque assay
# [7] = target: T1, Tsg101-UEV (Tsg101 amino acids 1-145) (Homo sapiens, UniProt Q99816); assay: Fluorescence thermal shift (FTS) assay, binding to Tsg101-UEV; details: for Thermal shift (Tm shift) of Tsg101-UEV caused by compound: FTS dose response, result in words; for Tm shift of Tsg101 in the FTS assay on addition of DTT: with reducing agent DTT
# T1 sequence (Q99816 1-145): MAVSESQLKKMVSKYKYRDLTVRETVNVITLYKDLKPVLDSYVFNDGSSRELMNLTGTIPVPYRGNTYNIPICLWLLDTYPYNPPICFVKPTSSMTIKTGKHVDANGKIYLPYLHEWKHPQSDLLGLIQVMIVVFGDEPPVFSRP
# Method: The fluorescence-based thermal shift assay is based on the observation that a protein unfolds upon heating, exposing the hydrophobic residues within its tertiary structure. The unfolding temperature (Tm) is determined by the protein's primary sequence and solution environment. The FTS assay uses a fluorescent dye sensitive to a hydrophobic environment to probe protein stability and its modulation by small molecule ligands. The dye has a low fluorescence quantum yield when in a polar environment. Once in contact with the hydrophobic core normally buried within a folded protein that has become exposed during the thermal unfolding (melting) process, the quantum yield of the dye increases, thus providing a reporting signal. Furthermore, a protein's stability can be affected by ligand binding, resulting in an increase or decrease in its melting temperature. FTS assay uses the Tm shift upon binding of a ligand to identify hit compounds for drug discovery.
# We screened chemical compounds using a fluorescence thermal shift (FTS) assay (27, 28) to identify small molecules that bind directly to a truncated form of Tsg101 (amino acids 1-145) which contains the Ubiquitin E2 variant (UEV) ubiquitin-binding domain (FIG. 1A, 1B, 1C). […] This truncated Tsg101, called Tsg101-UEV, was used because full-length Tsg101 has significant solubility issues in aqueous solution. Tsg101 is an adaptor protein and thus lacks a readily deployable functional assay, making FTS a tractable approach to identify interacting compounds. FTS monitors protein thermal denaturation using SYPRO® Orange, a dye which fluoresces when bound to hydrophobic surfaces, which allows monitoring of the changes in hydrophobic surface exposure during protein denaturation (27). Since ligand binding affects protein thermal stability, it can be detected through modulation of protein thermal denaturation (melting) as a shift in melting temperature (Tm). Tsg101-UEV has a well-defined melting curve suitable for FTS. We used the FTS assay to identify compounds that bind to Tsg101-UEV.
# Fluorescence thermal shift (FTS) screening to identify small molecule binding to Tsg101-UEV. FTS using thermal shift elicited by the small molecule binding effect to protein stability. FTS monitors protein thermal denaturation using environment-sensitive dye Sypro® Orange which fluoresces when bound to hydrophobic surfaces, taking advantage of the changes in hydrophobic surface exposure in protein denaturation. Discovery of small molecule binding to target protein utilizes the observation that ligand binding affects protein thermal stability, and therefore can be detected through a shift in the protein's thermal denaturation (melting) temperature (Tm). We have employed FTS to reveal changes in thermodynamic properties of Tsg101 elicited by its interaction with a small molecule. […] A fluorescence dye Sypro® Orange (Invitrogen) was used for assay detection. The dye is excited at 473 nm and has a fluorescence emission at 610 nm. The dye binds to hydrophobic regions of a protein that are normally buried in a native protein structure. […] The Tsg101 fragment was premixed at a concentration of 2 μM with a 5× concentration of Sypro® Orange in HEPES buffer (100 mM HEPES, 150 mM NaCl, pH 7.5). Then 10 μl of the protein-dye mix was added to an assay plate and 10 to 50 nanoliters of compound, equal to 10 to 50 μM, were added with an acoustic transfer robot Echo550 (Labcyte, CA).
# [8] = test system: HSV-2; assay: Transmission electron microscopy of HSV-2 infected Vero cells, particle counts; details: 24 h
# Method: Vero cells grown on glass cover slips were infected with HSV-2 at MOI of 0.1 pfu/cell for 2 h and then treated for 24 h with 105 μM tenatoprazole or vehicle control.
# (§2) Transmission electron Microscopy. Vero cells on glass cover slips were infected with HSV-2 at a MOI of 0.1 for two hours. Then 105 μM of tenatoprazole or 18 μM Ilaprazole was added and cells incubated for 24 hours. Tissue samples were fixed in 0.1 M sodium cacodylate buffer pH 7.3 containing 2% paraformaldehyde and 2.5% glutaraldehyde and post-fixed with 2% osmium tetroxide 427 in unbuffered aqueous solution. The samples were rinsed with distilled water, en bloc stained with 3% uranyl acetate, rinsed with distilled water, dehydrated in ascending grades of ethanol, transitioned with propylene oxide, embedded in the resin mixture of Embed 812 kit and cured in a 60° C. oven. Samples were sectioned on a Leica Ultracut UC6 ultramicrotome. 1 μm thick sections were collected and stained with Toluidine Blue O and 70 nm sections were collected on 200 mesh copper grids; thin sections were stained with uranyl acetate and Reynolds lead citrate. Transmission electron microscopy (TEM) was performed on a FEI Tecnai Spirit G2.
# [9] = test system: HSV-1; assay: Transmission electron microscopy of HSV-1 infected Vero cells, particle counts; details: 18 μM ilaprazole, 24 h, HSV-1, Vero cells
# Method: as §2
# [10] = test system: HIV-1; details: 293T cells in culture; cited from earlier work
# [11] = test system: DHPH; assay: FTS assay on unrelated protein DHPH; details: specificity control
# From the text: (§3) Fluorescence thermal shift (FTS) screening to identify small molecule binding to Tsg101-UEV. FTS using thermal shift elicited by the small molecule binding effect to protein stability. FTS monitors protein thermal denaturation using environment-sensitive dye Sypro® Orange which fluoresces when bound to hydrophobic surfaces, taking advantage of the changes in hydrophobic surface exposure in protein denaturation. Discovery of small molecule binding to target protein utilizes the observation that ligand binding affects protein thermal stability, and therefore can be detected through a shift in the protein's thermal denaturation (melting) temperature (Tm). We have employed FTS to reveal changes in thermodynamic properties of Tsg101 elicited by its interaction with a small molecule. The recombinant Tsg101 fragment (amino acids 1-145), prepared as described above in Materials and Methods (but without label) has a thermal unfolding profile suitable for using FTS as a primary screen assay in HTS. A fluorescence dye Sypro® Orange (Invitrogen) was used for assay detection. The dye is excited at 473 nm and has a fluorescence emission at 610 nm. The dye binds to hydrophobic regions of a protein that are normally buried in a native protein structure. […] Fluorescence was detected on a real-time PCR machine CFX384 (Bio-Rad Laboratories).
# [12] = target: ENO1 (Homo sapiens, UniProt P06733); assay: FTS assay on unrelated protein ENO1; details: specificity control
# From the text: as §3
# [13] = target: T2, MEK4 (Homo sapiens, UniProt P45985); assay: FTS assay on unrelated protein MEK4; details: specificity control
# T2 sequence (P45985 1-399): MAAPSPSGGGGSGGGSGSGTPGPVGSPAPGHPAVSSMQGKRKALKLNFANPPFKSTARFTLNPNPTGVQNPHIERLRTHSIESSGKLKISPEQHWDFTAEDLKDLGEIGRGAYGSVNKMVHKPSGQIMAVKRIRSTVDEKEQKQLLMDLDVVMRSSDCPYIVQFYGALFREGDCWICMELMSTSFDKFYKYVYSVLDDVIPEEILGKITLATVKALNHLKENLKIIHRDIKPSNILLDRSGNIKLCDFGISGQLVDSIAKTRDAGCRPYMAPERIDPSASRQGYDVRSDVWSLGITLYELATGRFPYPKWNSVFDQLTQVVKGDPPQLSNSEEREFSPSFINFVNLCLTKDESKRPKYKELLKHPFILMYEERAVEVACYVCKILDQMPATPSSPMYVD
# From the text: as §3
# [14] = read-out: EC50, inhibition of HSV-1 release, Vero cells, 24 h, range stated jointly for HSV-1 and HSV-2
# [15] = 18 μM ilaprazole, HSV-2, Vero cells
# [16] = Tenatoprazole 52 μM, Vero cells
# [17] = Tenatoprazole 79 μM, Vero cells
# [18] = Tenatoprazole 105 μM, Vero cells
# [19] = Tenatoprazole 131 μM, Vero cells
# [20] = Tenatoprazole 157 μM, Vero cells
# [21] = 105 tenatoprazole, HSV-2, 80 cells
# Sequence of ENO1 (P06733 whole entry): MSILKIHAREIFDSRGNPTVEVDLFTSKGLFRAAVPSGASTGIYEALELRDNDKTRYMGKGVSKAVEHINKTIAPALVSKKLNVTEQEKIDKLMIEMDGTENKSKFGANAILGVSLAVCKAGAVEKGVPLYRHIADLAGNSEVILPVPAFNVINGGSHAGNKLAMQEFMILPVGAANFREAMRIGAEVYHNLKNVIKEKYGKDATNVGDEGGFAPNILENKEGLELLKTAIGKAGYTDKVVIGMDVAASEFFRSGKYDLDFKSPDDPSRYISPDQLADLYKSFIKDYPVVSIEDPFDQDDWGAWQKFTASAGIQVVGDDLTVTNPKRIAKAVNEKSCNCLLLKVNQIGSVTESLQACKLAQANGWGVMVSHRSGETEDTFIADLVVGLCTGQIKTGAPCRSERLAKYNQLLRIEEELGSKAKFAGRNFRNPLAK
substance,measurement,setting,value
Ilaprazole,Cell toxicity at concentrations that block virus release,[1],did not observe cell toxicity
same,96 ® Cell Viablility OD490 nm 24 h,[1]; Ilaprazole 4.5 μM,1.764
same,96 ® Cell Viablility OD490 nm 24 h,[1]; Ilaprazole 9.0 μM,1.711
same,96 ® Cell Viablility OD490 nm 24 h,[1]; Ilaprazole 13.5 μM,1.690
same,96 ® Cell Viablility OD490 nm 24 h,[1]; Ilaprazole 18.0 μM,1.737
same,96 ® Cell Viablility OD490 nm 24 h,[1]; Ilaprazole 54 μM,1.658
same,96 ® Cell Viablility OD490 nm 24 h,[1]; Ilaprazole 270 μM,0.466
same,"WST-1 Cell Toxicity OD440-660 nm, 24 h",[2]; Ilaprazole 4.5 μM,1.058
same,"WST-1 Cell Toxicity OD440-660 nm, 24 h",[2]; Ilaprazole 9.0 μM,1.055
same,"WST-1 Cell Toxicity OD440-660 nm, 24 h",[2]; Ilaprazole 13.5 μM,0.950
same,"WST-1 Cell Toxicity OD440-660 nm, 24 h",[2]; Ilaprazole 27 μM,1.055
same,"WST-1 Cell Toxicity OD440-660 nm, 24 h",[2]; Ilaprazole 270 μM,0.423
same,Toxicity to cells at concentrations that inhibited release of HIV-1,[3]; 293T cells,did not detect toxicity
same,"96 ® Cell Viability OD490 nm, 24 h",[3]; Ilaprazole 1.8 μM,1.672
same,"96 ® Cell Viability OD490 nm, 24 h",[3]; Ilaprazole 3.6 μM,1.576
same,"96 ® Cell Viability OD490 nm, 24 h",[3]; Ilaprazole 7.2 μM,1.684
same,"96 ® Cell Viability OD490 nm, 24 h",[3]; Ilaprazole 10.8 μM,1.650
same,"96 ® Cell Viability OD490 nm, 24 h",[3]; Ilaprazole 13.5 μM,1.693
same,p24 pg/ml HIV,[4]; Ilaprazole 0.5 μM,4063 pg/mL
same,p24 pg/ml HIV,[4]; Ilaprazole 1 μM,3518 pg/mL
same,p24 pg/ml HIV,[4]; Ilaprazole 2 μM,1652 pg/mL
same,p24 pg/ml HIV,[4]; Ilaprazole 5 μM,274 pg/mL
same,p24 pg/ml HIV,[4]; Ilaprazole 10 μM,178 pg/mL
same,"Titer of HSV-1 Media, 24 h","[5]; Ilaprazole 4.5 μM, Vero cells",2.00E+06
same,"Titer of HSV-1 Media, 48 h","[5]; Ilaprazole 4.5 μM, Vero cells",2.40E+06
same,"Titer of HSV-1 in media + cell lysate, 24 h","[5]; Ilaprazole 4.5 μM, Vero cells",7.0E+07
same,"Titer of HSV-1 Media, 24 h","[5]; Ilaprazole 9.0 μM, Vero cells",7.50E+04
same,"Titer of HSV-1 Media, 48 h","[5]; Ilaprazole 9.0 μM, Vero cells",2.50E+05
same,"Titer of HSV-1 in media + cell lysate, 24 h","[5]; Ilaprazole 9.0 μM, Vero cells",3.6E+06
same,"Titer of HSV-1 Media, 24 h","[5]; Ilaprazole 13.5 μM, Vero cells",3.20E+04
same,"Titer of HSV-1 Media, 48 h","[5]; Ilaprazole 13.5 μM, Vero cells",2.00E+02
same,"Titer of HSV-1 in media + cell lysate, 24 h","[5]; Ilaprazole 13.5 μM, Vero cells",3.8E+05
same,"Titer of HSV-1 Media, 24 h","[5]; Ilaprazole 18.0 μM, Vero cells",6.00E+02
same,"Titer of HSV-1 Media, 48 h","[5]; Ilaprazole 18.0 μM, Vero cells",0.00E+00
same,"Titer of HSV-1 in media + cell lysate, 24 h","[5]; Ilaprazole 18.0 μM, Vero cells",9.1E+03
same,"Titer of HSV-1 Media, 24 h","[5]; Ilaprazole 22.5 μM, Vero cells",1.00E+02
same,"Titer of HSV-1 Media, 48 h","[5]; Ilaprazole 22.5 μM, Vero cells",0.00E+00
same,"Titer of HSV-1 in media + cell lysate, 24 h","[5]; Ilaprazole 22.5 μM, Vero cells",7E+02
same,Inhibition of virus release 4 and 5 days after a single application,"[5]; Vero cells, data not shown",Significant inhibition was still observed
same,EC50,"[5]; read-out: EC50, inhibition of HSV-1 release at 72 h, Vero cells, 72 h after a single application",0.8 to 1.2 µM
same,EC50,[5]; [14],3 to 9 µM
same,"Titer of HSV-2 Media, 24 h",[6]; Ilaprazole 4.5 μM,1.00E+05
same,"Titer of HSV-2 in media + cell lysate, 24 h",[6]; Ilaprazole 4.5 μM,3.60E+07
same,"Titer of HSV-2 in media, 48 h",[6]; Ilaprazole 4.5 μM,2.50E+05
same,"Titer of HSV-2 Media, 24 h",[6]; Ilaprazole 9.0 μM,5.00E+04
same,"Titer of HSV-2 in media + cell lysate, 24 h",[6]; Ilaprazole 9.0 μM,4.50E+06
same,"Titer of HSV-2 in media, 48 h",[6]; Ilaprazole 9.0 μM,7.50E+04
same,"Titer of HSV-2 Media, 24 h",[6]; Ilaprazole 13.5 μM,1.00E+04
same,"Titer of HSV-2 in media + cell lysate, 24 h",[6]; Ilaprazole 13.5 μM,4.30E+06
same,"Titer of HSV-2 in media, 48 h",[6]; Ilaprazole 13.5 μM,5.50E+04
same,"Titer of HSV-2 Media, 24 h",[6]; Ilaprazole 18.0 μM,1.50E+03
same,"Titer of HSV-2 in media + cell lysate, 24 h",[6]; Ilaprazole 18.0 μM,2.00E+05
same,"Titer of HSV-2 in media, 48 h",[6]; Ilaprazole 18.0 μM,1.50E+03
same,"Titer of HSV-2 Media, 24 h",[6]; Ilaprazole 22.5 μM,1.00E+02
same,"Titer of HSV-2 in media + cell lysate, 24 h",[6]; Ilaprazole 22.5 μM,1.50E+04
same,"Titer of HSV-2 in media, 48 h",[6]; Ilaprazole 22.5 μM,3.00E+02
same,EC50,[6],3 to 9 µM
same,Thermal shift (Tm shift) of Tsg101-UEV caused by compound,[7],largest thermal shift
same,Tm shift of Tsg101 in the FTS assay on addition of DTT,[7],blocked by the addition of DTT; also recorded: abolishes the Tm shift
same,Average number of virus particles in the nucleus,[8]; [15],31 particles
same,Range of virus particles in the nucleus,[8]; [15],9-56 particles
same,Virus particles in the cytoplasm,[8]; [15],0 particles
same,Average number of virus particles in the nucleus,[9],43 particles
same,Range of virus particles in the nucleus,[9],15-166 particles
same,Virus particles in the cytoplasm,[9],0 particles
Tenatoprazole,Cell toxicity at concentrations that block virus release,[1],nontoxic
same,"Viability of OD 490 nm, 24 h",[1]; Tenatoprazole 52 μM,1.724
same,"Viability of OD 490 nm, 24 h",[1]; Tenatoprazole 60 μM,1.759
same,"Viability of OD 490 nm, 24 h",[1]; Tenatoprazole 79 μM,1.742
same,"Viability of OD 490 nm, 24 h",[1]; Tenatoprazole 105 μM,1.777
same,"Viability of OD 490 nm, 24 h",[1]; Tenatoprazole 131 μM,1.714
same,"Viability of OD 490 nm, 24 h",[1]; Tenatoprazole 200 μM,0.872
same,Inhibition of release of infectious HIV-1 from 293T cells (earlier report),[10],quantitatively inhibit
same,Tm shift of DHPH,[11],did not observe a Tm shift
same,Tm shift of ENO1,[12],did not observe a Tm shift
same,Tm shift of MEK4,[13],did not observe a Tm shift
same,"Titer of HSV-1 Media, 48 H",[5]; [16],1.4E+07
same,"Titer of HSV-1 Media, 24 h",[5]; [16],2.90E+05
same,"Titer of HSV-1 Media, 48 H",[5]; [17],8.0E+06
same,"Titer of HSV-1 Media, 24 h",[5]; [17],1.30E+05
same,"Titer of HSV-1 Media, 48 H",[5]; [18],5.3E+05
same,"Titer of HSV-1 Media, 24 h",[5]; [18],5.40E+04
same,"Titer of HSV-1 Media, 48 H",[5]; [19],3.5E+04
same,"Titer of HSV-1 Media, 24 h",[5]; [19],2.40E+03
same,"Titer of HSV-1 Media, 48 H",[5]; [20],1.0E+02
same,"Titer of HSV-1 Media, 24 h",[5]; [20],1.30E+02
same,Drop of HSV-1 in released infectious virus,"[5]; Vero cells, 24 hours after infection",3 log
same,Duration of inhibition of virus release,"[5]; against either virus (HSV-1, HSV-2), data not shown",began to fall off after 48 h
same,EC50,[5]; [14],48 to 80 µM
same,Titer of HSV-2 Media 48 h,[6]; Tenatoprazole 52 μM,1.30E+06
same,"Titer of HSV-2 Media, 24 h",[6]; Tenatoprazole 52 μM,6.50E+04
same,"Total Titer HSV-2 Media + Cell Lysate, 24 h",[6]; Tenatoprazole 52 μM,4.00E+06
same,Titer of HSV-2 Media 48 h,[6]; Tenatoprazole 60 μM,5.60E+04
same,"Titer of HSV-2 Media, 24 h",[6]; Tenatoprazole 60 μM,1.00E+03
same,"Total Titer HSV-2 Media + Cell Lysate, 24 h",[6]; Tenatoprazole 60 μM,2.30E+04
same,Titer of HSV-2 Media 48 h,[6]; Tenatoprazole 79 μM,4.80E+03
same,"Titer of HSV-2 Media, 24 h",[6]; Tenatoprazole 79 μM,2.50E+02
same,"Total Titer HSV-2 Media + Cell Lysate, 24 h",[6]; Tenatoprazole 79 μM,1.50E+03
same,Titer of HSV-2 Media 48 h,[6]; Tenatoprazole 105 μM,1.80E+02
same,"Titer of HSV-2 Media, 24 h",[6]; Tenatoprazole 105 μM,0.00E+00
same,"Total Titer HSV-2 Media + Cell Lysate, 24 h",[6]; Tenatoprazole 105 μM,6.00E+02
same,"Titer of HSV-2 Media, 24 h",[6]; Tenatoprazole 131 μM,0.00E+00
same,"Total Titer HSV-2 Media + Cell Lysate, 24 h",[6]; Tenatoprazole 131 μM,3.00E+02
same,EC50,[6],84 µM
same,Thermal shift (Tm shift) of Tsg101-UEV caused by compound,[7],dose-dependent shift in the Tm
same,Tm shift of Tsg101 in the FTS assay on addition of DTT,[7],abolishes the Tm shift
same,Average number of virus particles in the nucleus,[8]; [21],31 particles
same,Virus particles in the cytoplasm,[8]; [21],did not detect virus particles
